Measured values reported in patent publication US20220354836A1, “Equine Esomeprazole Formulations and Methods of Use” (priority 2019, published 2022).
“Also recorded” adds a separate entry of the source. Blank lines part the entries; values can stand above or below the compound they belong to.

Experiments:
[1] = Particle size distribution (Malvern MASTERSIZER 2000); assay type: physicochemical; details: sterilized drug substance from Shouguang Fukang Pharma Co.; average of three measurements
Procedure: Particle size distribution may be measured, for example, using a Malvern MASTERSIZER 2000 instrument. After 24 hours storage, a particle size distribution (PSD) was performed using a Malvern MASTERSIZER 2000. The measuring range of the instrument is 0.02-2000 μm, with refractive index dispersant 1.375—hexanes, obscuration range 5-20%, sample/background measurement time=1, 5000 sample/background measurement snaps, and manual stirring speed 2000 rpm.

[2] = Pharmacokinetics after multiple intramuscular doses to horses
Procedure: Eighteen adult horses were randomized into three equal treatment groups and assigned one of three doses: 2 mg/kg (1×), 6 mg/kg (3×), or 10 mg/kg (5×). Doses were administered intramuscularly. Each horse received the assigned dose three times, seven days apart. Blood samples were collected at 1, 2, 4, 6, 8, 12, 24, 36, 48, 72, 96, 120, 144 hrs after each dosing, then every 48 hours until Day 28. Esomeprazole was quantified by LC-MS/MS. Data were subjected to noncompartmental analysis.

Median particle size [1]: 2.01 μm
SMILES: COc1ccc2[n-]c([S@@+]([O-])Cc3ncc(C)c(OC)c3C)nc2c1.COc1ccc2[n-]c([S@@+]([O-])Cc3ncc(C)c(OC)c3C)nc2c1.O.O.[Mg+2] [esomeprazole magnesium dihydrate]

SMILES: COc1ccc2nc([S@@+]([O-])Cc3ncc(C)c(OC)c3C)[nH]c2c1 [esomeprazole sodium]
Median particle size [1]: 18.84 μm

SMILES: COc1ccc2nc([S@@+]([O-])Cc3ncc(C)c(OC)c3C)[nH]c2c1 [esomeprazole]
Dose normalization of Cmax and area under the curve (kinetic linearity) ([2]; across 2, 6 and 10 mg/kg intramuscular): linear pharmacokinetics; also recorded: Linear kinetic properties were observed
Time for which drug was detectable ([2]; after the final dose in the 5× group (10 mg/kg intramuscular)): 96 ± 26.29 h
Mean half-life ([2]; horse, in vivo, im, 10 mg/kg): 12 to 24 h
half-life ([2]; horse, in vivo, im, 10 mg/kg, Mean half-life): 11.6 to 24.5 h
Tolerability ([2]; in vivo): well tolerated
Absorption from the injection site ([2]; intramuscular, horses): rapidly absorbed
Injection site reaction ([2]; one horse in the 3× group (6 mg/kg intramuscular)): A single mild, self-resolving, injection site reaction
